Measurements: the supplement of paper PMC10307832

Assays:
Test in all cases: relative viability (nuclei count vs DMSO), 5 days (fraction); higher = more cells survive
[1] = compound: C1CNCCC1C2=CC(=NN2)C3=CC=NC=C3 + Nc1nc2[nH]cc(CCc3ccc(C(=O)N[C@@H](CCC(=O)O)C(=O)O)cc3)c2c(=O)[nH]1 [Pemetrexed] (partner 0.2 µM)
Summary of the method: (§1)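 Each reported value is a median over duplicate plates. It expresses relative viability: treated-well nuclei count divided by vehicle-well nuclei count. Lung cancer cell lines in 1536-well plates were dosed by pin tool a day after seeding, alone with one drug or with a fixed anchor-drug dose plus five library-drug doses (not always all listed) in √10 steps, and nuclei were counted after 5 days.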

[2] = compound: C[C@@H](N)c1ccc(C(=O)Nc2ccnc3[nH]ccc23)cc1 + CC(C)C[C@H](NC(=O)[C@H](Cc1ccccc1)NC(=O)c1cnccn1)B(O)O [Bortezomib] (partner 0.002 µM)
Summary of the method: as §1

[3] = compound: C[C@@H](N)c1ccc(C(=O)Nc2ccnc3[nH]ccc23)cc1 + CCNC(=O)c1noc(-c2cc(C(C)C)c(O)cc2O)c1-c1ccc(CN2CCOCC2)cc1 [Luminespib] (partner 0.01 µM)
Summary of the method: as §1

Tanzisertib + Luminespib = compound: O[C@H]1CC[C@H](Nc2ncc3nc(Nc4c(F)cc(F)cc4F)n([C@H]4CCOC4)c3n2)CC1 [Tanzisertib] + CCNC(=O)c1noc(-c2cc(C(C)C)c(O)cc2O)c1-c1ccc(CN2CCOCC2)cc1 [Luminespib] (partner 0.01 µM)
Summary of the method: as §1

Cell Line | relative viability ([1]; first compound 0.08 µM) | relative viability ([1]; first compound 0.8 µM) | relative viability ([1]; first compound 2.53 µM) | relative viability ([1]; first compound 8 µM) | relative viability ([2]; first compound 0.04 µM) | relative viability ([2]; first compound 0.1265 µM) | relative viability ([2]; first compound 0.4 µM) | relative viability ([2]; first compound 1.265 µM) | relative viability ([2]; first compound 4 µM) | relative viability ([3]; first compound 0.04 µM) | relative viability ([3]; first compound 0.1265 µM) | relative viability ([3]; first compound 0.4 µM) | relative viability ([3]; first compound 1.265 µM) | relative viability ([3]; first compound 4 µM) | relative viability (Tanzisertib + Luminespib; first compound 0.08 µM) | relative viability (Tanzisertib + Luminespib; first compound 0.253 µM) | relative viability (Tanzisertib + Luminespib; first compound 0.8 µM) | relative viability (Tanzisertib + Luminespib; first compound 2.53 µM) | relative viability (Tanzisertib + Luminespib; first compound 8 µM)
NCI-H3122 | 0.193 | 0.212 | 0.197 | 0.202 | 1.05 | 0.979 | 1.04 | 1 | 0.912 | 0.0997 | 0.0955 | 0.113 | 0.162 | 0.124 | 0.134 | 0.0952 | 0.125 | 0.0854 | 0.103
PC-3 [JPC-3] | 0.966 | 1.22 | 1.15 | 0.998 | 0.838 | 0.892 | 0.856 | 0.921 | 0.729 | 0.714 | 0.68 | 0.73 | 0.846 | 0.607 | 0.621 | 0.758 | 0.693 | 0.662 | 0.6
PC-14 | 0.107 | 0.134 | 0.138 | 0.131 | 0.832 | 0.836 | 0.874 | 0.923 | 0.755 | – | 0.183 | 0.154 | – | 0.132 | 0.181 | 0.109 | 0.22 | 0.217 | 0.17
RERF-LC-KJ | 0.464 | 0.493 | 0.516 | 0.463 | 1.19 | 1.21 | 1.2 | 1.24 | 1.12 | 1.22 | 1.3 | 1.26 | 1.2 | 1.25 | 1.29 | 1.17 | 1.29 | 1.16 | 1.22
SK-LU-1 | 0.955 | 1.04 | 1.04 | 0.976 | 0.886 | 1.54 | 1.01 | 0.753 | 0.743 | 0.229 | 0.208 | 0.187 | 0.176 | 0.163 | 0.229 | 0.231 | 0.189 | 0.181 | 0.18
SW 1573 | – | 0.881 | 0.912 | 0.992 | 1.08 | 1.01 | 0.939 | 0.968 | 0.7 | 0.311 | 0.37 | 0.212 | 0.304 | 0.249 | 0.294 | 0.24 | 0.18 | 0.187 | 0.339
